{
  "source": "paper PMC8270315",
  "about": "“Combination of Heme Oxygenase-1 Inhibition and Sigma Receptor Modulation for Anticancer Activity” (Molecules, 2021)",
  "key": {"σ2R [1]": {"molecular_target": "T1, σ2R (Rattus norvegicus, UniProt Q5U3Y7)", "T1 construct": "from tissue; host or cells: liver membranes of Sprague-Dawley rats (animals from ENVIGO RMS S.R.L.)", "T1 sequence (Q5U3Y7 1-176)": "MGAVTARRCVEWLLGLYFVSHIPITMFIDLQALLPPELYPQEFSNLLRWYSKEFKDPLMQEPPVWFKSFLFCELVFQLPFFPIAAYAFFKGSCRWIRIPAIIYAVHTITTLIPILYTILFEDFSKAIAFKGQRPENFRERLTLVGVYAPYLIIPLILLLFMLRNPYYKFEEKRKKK", "assay": "σ2R radioligand binding assay, [3H]DTG, rat liver membranes", "method": "(§1) All new synthesized HO-1/σ hybrids 1–4 were evaluated for affinity at both the σ1R and the σ2R, through radioligand binding assay.\n(§2) Brain and liver homogenates for σ1R and σ2R binding assays were prepared from male Dunkin–Hartley guinea pigs and Sprague–Dawley rats, respectively, (ENVIGO RMS S.R.L., Udine, Italy) as previously reported [54]. In vitro σ1R ligand binding assays were carried out in Tris buffer (50 mM, pH 7.4) for 150 min at 37 °C. […] Bound and free radioligand were separated by fast filtration under reduced pressure using a Millipore filter apparatus through Whatman GF 6 glass fiber filters, which were presoaked in a 0.5% poly(ethyleneimine) water solution. Each filter paper was rinsed three times with ice-cold Tris buffer (50 mM, pH 7.4), dried at rt, and incubated overnight with scintillation fluid into pony vials. The bound radioactivity has been determined using a liquid scintillation counter (Beckman LS 6500) [55]. In vitro σ2R ligand binding assays were carried out in Tris buffer (50 mM, pH 8.0) for 120 min at rt. […] Bound and free radioligand were separated by fast filtration under reduced pressure using a Millipore filter apparatus through Whatman GF 6 glass fiber filters, which were presoaked in a 0.5% poly(ethyleneimine) water solution. Each filter paper was rinsed three times with ice-cold Tris buffer (10 mM, pH 8), dried at rt, and incubated overnight with scintillation fluid into pony vials. The bound radioactivity was determined using a liquid scintillation counter (Beckman LS 6500) [56]. The Ki-values were calculated with the program GraphPad Prism® 7.0 (GraphPad Software, San Diego, CA, USA). The Ki-values are given as mean value ± SD from at least two independent experiments performed in duplicate."}, "U87MG cells": {"tested_on": "U87MG cells", "assay": "MTT cell viability assay, U87MG cells", "format": "cell-based, human", "settings": "for effect on U87MG cell viability (in words): U87MG, 1, 10 and 50 μM; for effect of co-administration on U87MG cell viability (in words): 10 μM σR ligand plus 10 μM HO-1 inhibitor, compared with σR ligand alone", "method": "In particular, we used the human glioblastoma cell line U87MG (ATCCC number #HTB-14) and the prostate cancer cell line DU145 (ATCC HTB-81). These cell lines were obtained from the American Type Culture Collection (ATCC, Rockville, Md., USA). Cells were cultured in Dulbecco’s modified Eagle’s medium (DMEM) supplemented with 10% of heat-inactivated fetal bovine serum (FBS), 100 U/mL penicillin and 100-μg/mL streptomycin (Sigma-Aldrich, Steinheim, Germany) and incubated at 37 °C in a humidified atmosphere with 5% CO2.\nThe cytotoxicity of HO-1 inhibitors and σR ligands previous synthesized compounds as well as novel HO-1/σR hybrids compounds were evaluated. The effect on cell viability was assessed by performing MTT assay. Cells were seeded into 96-well plates at a density of 7.0 × 10^3 cells/well in 100 µL of culture medium. The day after, cells were treated with each molecule at three different concentrations (1 µM, 10 µM and 50 µM) for 72 h. Following treatments, 0.5 mg/mL of 3-[4,5-dimethylthiazol-2-yl]-2,5-diphenyltetrazolium bromide (MTT) (Sigma-Aldrich) was added to each well and incubated for 4 h at 37 °C. Finally, dimethyl-sulfoxide (DMSO) was used to dissolve formazan salts and absorbance was measured at 450 nm in a microplate reader (Biotek Synergy-HT). Six replicate wells were used for each group."}, "σ1R": {"molecular_target": "T2, σ1R (Cavia porcellus, UniProt Q60492)", "T2 construct": "The thawed membrane preparation of guinea pig brain cortex was incubated with increasing concentrations of test compounds; from tissue; host or cells: brain cortex membranes of male Dunkin-Hartley guinea pigs (animals from ENVIGO RMS S.R.L.)", "T2 sequence (Q60492 whole entry)": "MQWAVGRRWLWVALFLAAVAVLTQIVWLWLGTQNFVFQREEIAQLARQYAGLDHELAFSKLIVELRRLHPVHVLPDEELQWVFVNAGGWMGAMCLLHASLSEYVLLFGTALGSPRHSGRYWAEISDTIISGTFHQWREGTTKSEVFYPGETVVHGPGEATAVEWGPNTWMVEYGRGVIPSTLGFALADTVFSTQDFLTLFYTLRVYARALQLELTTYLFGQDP", "assay": "σ1R radioligand binding assay, [3H](+)-pentazocine, guinea pig brain cortex membranes", "settings": "for inhibition at 10 µM: read-out: σ1R % of inhibition at 10 μM", "method": "as §1, §2"}, "HO-1": {"molecular_target": "T3, HO-1 (Rattus norvegicus, UniProt P06762)", "T3 construct": "selected in order to use the most native (i.e., closest to in vivo) forms of HO-1; from tissue; host or cells: spleen microsomal fraction of male Sprague-Dawley rats", "T3 sequence (P06762 1-289)": "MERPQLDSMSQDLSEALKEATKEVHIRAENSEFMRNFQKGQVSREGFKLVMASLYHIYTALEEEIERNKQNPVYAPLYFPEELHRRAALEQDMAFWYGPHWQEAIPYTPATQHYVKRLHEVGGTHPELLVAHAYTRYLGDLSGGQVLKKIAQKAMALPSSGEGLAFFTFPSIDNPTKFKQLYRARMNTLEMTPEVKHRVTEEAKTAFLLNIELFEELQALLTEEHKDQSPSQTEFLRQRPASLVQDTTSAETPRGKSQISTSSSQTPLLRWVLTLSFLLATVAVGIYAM", "assay": "HO-1 inhibition, bilirubin formation in rat spleen microsomal fraction", "format": "biochemical", "settings": "Table S1", "description": "The new HO-1/σRs hybrids 1–4 were tested to evaluate their HO-1 inhibitory activity. The enzyme was obtained from the microsomal fractions of rat spleen. Determination of HO-1 activity was performed by measuring the bilirubin formation using the difference in absorbance at 464–530 nm, as reported in the experimental section. Compounds LS/0, LS4/28, LS6/42 and azalanstat were used as reference substances. We focused our attention on HO-1, since only this inducible isoform is involved in tumorigenesis and in tumor progression.\nMicrosomal fractions obtained from rat spleen were used as sources of HO-1. Microsomal preparations obtained by differential centrifugation, were selected in order to use the most native (i.e., closest to in vivo) forms of HO-1. The experiments reported in the present paper complied with current Italian law and met the guidelines of the Institutional Animal Care and Use Committee of Ministry of Health (Directorate General for Animal Health and Veterinary Medicines) (Italy). The experiments were performed in male Sprague–Dawley albino rats (150 g body weight and age 45 d). They had free access to water and were kept at room temperature with a natural photo-period (12 h light, 12 h dark cycle). For measuring HO-1 activities, each rat was sacrificed and their spleens were excised and weighed. A homogenate (15%, w/v) of spleens pooled from four rats was prepared in ice-cold HO-homogenizing buffer (50 mM Tris buffer, pH 7.4, containing 0.25 M sucrose) using a Potter–Elvehjem homogenizing system with a Teflon pestle. The microsomal fraction of rat spleen homogenate was obtained by centrifugation at 10,000× g for 20 min at 4 °C, followed by centrifugation of the supernatant at 100,000× g for 60 min at 4 °C. The 100,000g pellet (microsomes) was resuspended in an 100 mM potassium phosphate buffer, pH 7.8, containing 2 mM MgCl2 with a Potter–Elvehjem homogenizing system. The rat spleen microsomal fractions were divided into equal aliquots, placed into microcentrifuge tubes, and stored at −80 °C for up to 2 months.\nBiliverdin reductase was obtained from liver cytosol. Rat liver was perfused through the hepatic portal vein with cold 0.9% NaCl, then it was cut and flushed with 2 × 20 mL of ice-cold PBS to remove all of the blood. Liver tissue was homogenized in 3 volumes of solution containing 1.15% KCl w/v and Tris buffer 20 mM, pH 7.8 on ice. Homogenates were centrifuged at 10,000× g, for 20 min at 4 °C. Supernatant was decanted and centrifuged at 100,000× g for 1 h at 4 °C to sediment the microsomes. The 100,000× g supernatant was saved and then stored in small amounts at −80 °C after its protein concentration was measured.\nThe HO-1 activities were determined by measuring the bilirubin formation using the difference in absorbance at 464–530 nm. Reaction mixtures (500 µL) contained 20 mM Tris–HCl, pH 7.4, (1 mg/mL) microsomal extract, 0.5–2 mg/mL biliverdin reductase, 1 mM NADPH, 2 mM glucose 6-phosphate (G6P), 1 U G6P dehydrogenase, 25 μM hemin, and 10 µL of DMSO (or the same volume of DMSO solution of test compounds to a final concentration of 100, 10, and 1 µM). Samples were incubated for 60 min at 37 °C in a circulating water bath in the dark. Reactions were stopped by adding the same volume of chloroform. After recovering the chloroform phase, the amount of bilirubin formed was measured with a double-beam spectrophotometer as OD464–530 nm (extinction coefficient, 40 mM/cm^−1 for bilirubin). […]"}, "DU145 cells": {"tested_on": "DU145 cells", "assay": "MTT cell viability assay, DU145 cells", "format": "cell-based, human", "settings": "DU145, single compound 10 μM, 72 h", "from_the_text": "In some types of human prostate and brain cancers, both HO-1 and σRs are overexpressed, influencing cancer cell proliferation. Consequently, σR ligands and HO-1 inhibitors may have anticancer activity. Literature data highlight the potential antiproliferative activity of various σ1R ligands in highly diffusive glioblastoma and prostate cancer cells, likely by interfering with the progression of cell cycle and decreasing the migration of cancer cells. Likewise, HO-1 inhibition hinders cancer progression, mainly by decreasing CO-mediated angiogenesis and disrupting the antioxidant HO-1 activity. […] Cytotoxicity of all new and previous synthesized compounds were evaluated in vitro via MTT assay. The cell viability of DU145 and U87-MG cells was assessed after 72 h of continuous treatment with all tested compounds, at the concentrations of 1, 10, and 50 μM. […]\nThe cytotoxicity of HO-1 inhibitors and σR ligands previous synthesized compounds as well as novel HO-1/σR hybrids compounds were evaluated. The effect on cell viability was assessed by performing MTT assay. […] Finally, dimethyl-sulfoxide (DMSO) was used to dissolve formazan salts and absorbance was measured at 450 nm in a microplate reader (Biotek Synergy-HT). […]"}, "HO-2": {"tested_on": "HO-2", "set-up": "method as in PMID 29783634, PMID 23867390, PMID 32056044, PMID 32168943, PMID 32222619", "settings": "Figure 1, previously demonstrated; cited from earlier work"}, "σ2R [2]": {"molecular_target": "T1, σ2R", "settings": "Table S1; ref [4, 5] of the supplement; cited from earlier work"}},
  "note": "Like-named read-outs stand apart in the source and are kept apart here.",
  "data": [
    {"compound": "O=C(Cc1ccc(OCCCCn2ccnc2)cc1)N1CCN(Cc2ccccc2)CC1", "note": "[Compound 2, 2-(4-(4-(1H-imidazol-1-yl)butoxy)phenyl)-1-(4-benzylpiperazin-1-yl)ethan-1-one]", "values": [
      {"measurement": "Ki", "setting": "σ2R [1]", "result": "> 10", "unit": "µM"},
      {"measurement": "inhibition at 10 µM", "setting": "σ2R [1]", "result": 67, "unit": "%"},
      {"measurement": "effect on U87MG cell viability (in words)", "setting": "U87MG cells; 72 h, MTT", "result": "reduced U87MG cell viability at all concentrations, especially at 50 μM"},
      {"measurement": "Ki", "setting": "σ1R", "result": "> 10", "unit": "µM"},
      {"measurement": "inhibition at 10 µM", "setting": "σ1R", "result": 73, "unit": "%"},
      {"measurement": "IC50", "setting": "HO-1", "result": "216 ± 3.6", "unit": "µM"}
    ]},
    {"compound": "O=C(CCc1ccc(OCCCCn2ccnc2)cc1)N1CCN(Cc2ccccc2)CC1", "note": "[Compound 3, 3-(4-(4-(1H-imidazol-1-yl)butoxy)phenyl)-1-(4-benzylpiperazin-1-yl)propan-1-one]", "values": [
      {"measurement": "Ki", "setting": "σ2R [1]", "result": "> 10", "unit": "µM"},
      {"measurement": "inhibition at 10 µM", "setting": "σ2R [1]", "result": 66, "unit": "%"},
      {"measurement": "effect on U87MG cell viability (in words)", "setting": "U87MG cells; 72 h, MTT", "result": "less efficacy than the control at 1 μM"},
      {"measurement": "Ki", "setting": "σ1R", "result": "> 10", "unit": "µM"},
      {"measurement": "inhibition at 10 µM", "setting": "σ1R", "result": 78, "unit": "%"},
      {"measurement": "IC50", "setting": "HO-1", "result": "162 ± 1.8", "unit": "µM"}
    ]},
    {"compound": "O=C(c1ccc(OCCCCn2ccnc2)cc1)N1CCN(Cc2ccccc2)CC1", "note": "[Compound 1, (4-(4-(1H-imidazol-1-yl)butoxy)phenyl)(4-benzylpiperazin-1-yl)methanone]", "values": [
      {"measurement": "Ki", "setting": "σ2R [1]", "result": "> 10", "unit": "µM"},
      {"measurement": "inhibition at 10 µM", "setting": "σ2R [1]", "result": 54, "unit": "%"},
      {"measurement": "effect on U87MG cell viability (in words)", "setting": "U87MG cells; 72 h, MTT", "result": "reduced U87MG cell viability at all concentrations, especially at 50 μM"},
      {"measurement": "Ki", "setting": "σ1R", "result": "> 10", "unit": "µM"},
      {"measurement": "inhibition at 10 µM", "setting": "σ1R", "result": 90, "unit": "%"},
      {"measurement": "IC50", "setting": "HO-1", "result": "230 ± 5.1", "unit": "µM"}
    ]},
    {"compound": "O=C(CCCN1CCC(O)(c2ccc(Cl)cc2)CC1)c1ccc(F)cc1", "note": "[Haloperidol, haloperidol]", "values": [
      {"measurement": "effect on U87MG cell viability (in words)", "setting": "U87MG cells; 72 h, MTT", "result": "high efficacy in downregulation of cell viability"},
      {"measurement": "reduction of cell viability", "setting": "DU145 cells", "result": "about 50%"}
    ]},
    {"compound": "OC(Cn1ccnc1)c1ccc(CCc2ccc(Br)cc2)cc1", "note": "(stereo not shown) [LS6/42]", "values": [
      {"measurement": "reduction of cellular viability", "setting": "U87MG cells; U87MG, single compound 10 μM, 72 h, MTT", "result": "about 50%"},
      {"measurement": "IC50", "setting": "HO-2", "result": "> 100", "unit": "µM"}
    ]},
    {"compound": "Brc1cccc(OCCCCn2ccnc2)c1", "note": "[LS/0]", "values": [
      {"measurement": "effect on U87MG cell viability (in words)", "setting": "U87MG cells; 72 h, MTT", "result": "significantly reduce cell viability only at 50 μM"},
      {"measurement": "IC50", "setting": "HO-2", "result": "2.2 ± 0.2", "unit": "µM"}
    ]},
    {"compound": "COc1ccc(CN2CCN(C(=O)CCc3ccccc3)CC2)cc1", "note": "[RFB/13]", "values": [
      {"measurement": "effect of co-administration on U87MG cell viability (in words)", "setting": "U87MG cells; U87MG", "result": "significantly reduced for compound RFB/13 only when combined with LS4/28 or LS6/42"},
      {"measurement": "effect on U87MG cell viability (in words)", "setting": "U87MG cells; 72 h, MTT", "result": "significantly reduce cell viability only at 50 μM"}
    ]},
    {"compound": "OC(Cn1ccnc1)c1cccc(-c2ccccc2)c1", "note": "(stereo not shown) [LS4/28]", "values": [
      {"measurement": "effect on U87MG cell viability (in words)", "setting": "U87MG cells; 72 h, MTT", "result": "did not affect U87MG cell viability"},
      {"measurement": "IC50", "setting": "HO-2", "result": "> 100", "unit": "µM"}
    ]},
    {"compound": "COc1ccc(CN2CCN(C(=O)CCC3CCCCC3)CC2)cc1", "note": "[SI1/13]", "values": [
      {"measurement": "effect of co-administration on U87MG cell viability (in words)", "setting": "U87MG cells; U87MG", "result": "increased by the addition of all the tested HO-1 inhibitors"},
      {"measurement": "effect on U87MG cell viability (in words)", "setting": "U87MG cells; 72 h, MTT", "result": "high efficacy in downregulation of cell viability"},
      {"measurement": "Ki", "setting": "σ2R [2]", "result": 1.42, "unit": "µM"}
    ]},
    {"compound": "O=C(CCCc1ccc(OCCCCn2ccnc2)cc1)N1CCN(Cc2ccccc2)CC1", "note": "[Compound 4, 4-(4-(4-(1H-imidazol-1-yl)butoxy)phenyl)-1-(4-benzylpiperazin-1-yl)butan-1-one]", "values": [
      {"measurement": "Ki", "setting": "σ2R [1]", "result": 4.62, "unit": "µM"},
      {"measurement": "effect on U87MG cell viability (in words)", "setting": "U87MG cells; 72 h, MTT", "result": "reduced U87MG cell viability at all concentrations, especially at 50 μM"},
      {"measurement": "Ki", "setting": "σ1R", "result": "> 10", "unit": "µM"},
      {"measurement": "inhibition at 10 µM", "setting": "σ1R", "result": 55, "unit": "%"},
      {"measurement": "IC50", "setting": "HO-1", "result": "87.7 ± 1.3", "unit": "µM"},
      {"measurement": "IC50 HO-1", "setting": "HO-1", "result": "the most potent compound among the series"}
    ]}
  ]
}
